Source: publication PMC5309220, “Screening for Small Molecule Inhibitors of Statin-Induced APP C-terminal Toxic Fragment Production” (Frontiers in Pharmacology, 2017)
“Also recorded” adds a separate entry of the source. Counter-ions that a name gives are not always drawn.

Tests used:
[1] = system: cerivastatin-induced APPΔC31 in CHO-7W cells; assay: APPΔC31 AlphaLISA dose-response, cerivastatin-induced; type: cell-based, Chinese hamster; details: 24 h
Description: The APPΔC31 AlphaLISA assay (Figures 2C–E) was run directly in the plate with the cell lysate as described above in “AlphaLISA to detect APPΔC31.” APPΔC31 levels were measured using the Envision plate reader and data were normalized to DMSO (100% APPΔC31 production) and Q-VD-OPh (MP Biomedicals) pan-caspase inhibitor at 30 μM (0%); these controls were present on each plate. In addition, some compounds of interest were further analyzed in a dose-response curve to determine IC50 values.
The broad-spectrum pan-caspase inhibitor Q-VD-OPh served as the positive control.
Lysates were prepared and APPΔC31 determined by ELISA. (B) CHO-7W cells were treated with 10 μM cerivastatin plus increasing doses of caspase and MEK inhibitors for 24 h. Lysates were prepared and APPΔC31 determined by AlphaLISA. Click here for additional data file.

[2] = system: cerivastatin-induced APPΔC31 production in CHO-7W cells; assay: APPΔC31 ELISA validation assay, cerivastatin-induced; type: cell-based, Chinese hamster; details: CHO-7W cells, 10 μM cerivastatin, 24 h; test concentration not given
Description: The APPΔC31 ELISA developed in partnership with Enzo Life Sciences (ADI-900-227) follows a standard sandwich ELISA design wherein a monoclonal N-terminal APP-specific antibody is used to coat the wells of the microtiter plate (capture antibody) and the anti-APPΔC31 cleavage site-specific polyclonal antibody serves as the detection antibody. An HRP-conjugated secondary antibody is then added and a colorimetric signal generated by enzymatic conversion of the tetramethylbenzidine (TMB) substrate. Protein levels were first determined using a colorimetric coomassie assay (Coomassie Plus, Thermo).
A subset of hits from our HTS was validated in a secondary assay. […] Thapsigargin also acts as a sarco/endoplasmic reticulum calcium ATPase (SERCA) inhibitor. Therefore, another SERCA inhibitor, 2,5-Di-tert-butylhydroquinone, was also added to the testing. In this secondary assay, CHO-7W cells were cultured as described above and plated into 24-well dishes at ∼200K/well. […] These hits were selected for their potency in primary screen, their structural features, their known activities, and availability of compound for additional testing. There were cerivastatin-only (negative control), + QVD-OPh (positive control), and for viability, vehicle-only (negative) controls. Cells were harvested by removing the media to a tube, adding […] trypsin to detach cells then neutralizing with media. […] Cells were centrifuged at 5000 rpm (2300 × g) for 5 min. Cell pellets were frozen until use. Forty μL cold RIPA buffer plus complete protease inhibitors (Roche) was added to each pellet and the pellets were reconstituted by pipetting up and down, incubating on ice for 30 min, vortexing, and centrifugation as above. Cell lysate supernatants were then assayed by APPΔC31 ELISA as described above. For most compounds, multiple/repeat studies were performed and two wells used for each condition. Statistical comparison was performed using one-way ANOVA for multiple comparisons, with a Dunnett post hoc test to compare each condition to the control. Further dose-response studies were performed on select compounds.

[3] = system: cerivastatin-induced APPΔC31 in CHO-7W cells; assay: APPΔC31 immunoblot of CHO-7W cell lysates; type: cell-based, Chinese hamster; details: compound at 30 μM, 10 μM cerivastatin, 24 h
Description: For immunoprecipitation, approximately 300 μg cell lysate supernatants were brought to 250 μL with cold RIPA + PI buffer in microfuge tubes. One μL of 6E10 APP antibody (Covance) was added and the mixture was rotated overnight in a cold room. The next day, 25 μL of protein A/G beads (Santa Cruz Biotech) were added and the samples were rotated for 1.5 h in the cold room. The beads were then centrifuged down and washed four times with cold PBS. Forty μL 1x LDS sample buffer + DTT was added to the pellets, which were heated to 70°C for 10 min, vortexed and centrifuged. Supernatants were loaded onto Nupage 4–12% Bis-Tris gels (Life Technologies) for electrophoresis and were then transferred to 0.2 μm PVDF membrane for immunoblotting with the anti-APPΔC31 antibody.
(A) CHO-7W cells were treated with 10 μM cerivastatin (CS) along with varying concentrations of Q-VD-OPh (QVD) for 24 h. Cell lysates were prepared and immunoprecipitated with anti-APP (6E10) overnight at 4°C and then incubation with Protein A/G beads (Santa Cruz Biotech). The resulting pellets were incubated, electrophoresed using Nupage 4–12% Bis-Tris gels (Life Technologies) and the 0.2 μm PVDF membrane probed with anti-APPΔC31. (B) CHO-7W cells were treated with increasing concentrations of CS or 10 μM CS together with increasing concentrations of 3′-fluorobenzylspiperone maleate (3′-F-Sp) or 30 μM QVD for 24 h. […]

sAPPα in CHO-7W cultures = assay: sAPPα ELISA in cell media; type: cell-based, Chinese hamster; details: QVD, Sp, 3′F-Sp at 10, 30, and 30 mM, respectively (so in the source), with 10 μM cerivastatin, 24 h, vs CS alone, n = 2
Description: (§1) In an additional study (Supplementary Figure S5A), measurement of the α secretase fragment of full length (FL) APP – soluble APP alpha (sAPPα) – was performed using cell media by ELISA (IBL). Furthermore, in two studies (Supplementary Figures S5B,C), total protein levels in CHO-7W cell lysates were determined by Coomassie Plus protein assay (Pierce).
(§2) Supplementary file Data_Sheet_1.docx: FIGURE S5 Effect of lead compounds on protein concentration and sAPPα. […] (B) Total protein from lysates of CHO-7W cells treated with either 30 μM QVD or 10 μM Sp alone for 24 h was similar to the vehicle control (n = 1). (C) Total protein from CHO-7W lysates treated with 10 μM CS alone or in combination with QVD, Sp, or 3′F-Sp at the concentrations shown increased (n = 1). Statistical analysis was performed using one-way ANOVA and Dunnett post-test for comparison to the 10 μM CS control (^∗∗p < 0.001, ^∗∗∗p < 0.0001). Click here for additional data file.

CHO-7W cells = assay: Total protein in CHO-7W cell lysates (Coomassie Plus); type: cell-based, Chinese hamster; details: QVD, spiperone, 3′fluorobenzylspiperone at 30, 10, and 10 μM, respectively, with 10 μM cerivastatin, n = 1
Description: as §1, §2

[4] = PAMPA / immobilized artificial membrane (IAM.PC.DD2) chromatography; type: in vitro ADME
Description: Immobilized artificial membrane (IAM) chromatography such as PAMPA (parallel artificial membrane permeability assay) is used to predict a compound’s passive diffusion through membranes and may predict blood-brain barrier (BBB) penetrance.
To minimize variability between PAMPA assays for different compounds, the well-characterized, reliable IAM.PC.DD2 Regis Technologies analytical columns were used. In these 10 cm × 4.6 mm columns, the phospholipid is bonded on 10 μm, 300 Å, spherical aminopropyl silica and end capped with C10 and C3 amides.
Columns were connected to an Agilent high performance liquid chromatography system. […] The mobile phase was a mixture of water and methanol and a gradient was used for the elution of the compounds. The detector was set at 250 and 280 nm. After a compound was eluted, the retention time and void volume times were obtained from the chromatogram.
The IAM capacity factor (KIAM) was calculated using the equation: KIAM=tr−t0/t0 ; where tr is the
retention time of a compounds and t0 is the void volume time of the column. […] To predict the likelihood a compound would be BBB penetrant, we used the correlation described by [Yoon et al. (2006)]:
• (I) If KIAM/MW^4x10^10 > 0.85 the BBB penetration is predicted to be high • (II) If KIAM/MW^4x10^10 < 0.85 the BBB penetration is predicted to be low

[5] = system: cerivastatin-induced APPΔC31 in I5 mouse hippocampal slice cultures; assay: Ex vivo organotypic hippocampal slice cultures, APPΔC31 ELISA; details: 72 h, read-out: inhibition of APPΔC31 production
Description: I5 mice originally purchased from Jackson labs (JAX B6.Cg-Tg(PDGFB-APP)5Lms/J) were bred and maintained in the Buck Institute vivarium facility, and used under the guidelines of an approved institutional IACUC protocol. P5–7 day mice were sacrificed using CO2 gas and cervical dislocation according to established IACUC protocols. Brains were removed, and under sterile conditions, hippocampi were dissected out on ice in Hybernate media + 1:400 Glutamax, 1:100 Pen/Strep and 1:50 B27 supplement (all Life Technologies). Hippocampi were laid parallel on a tissue chopper (McIlwain) in a small amount of media and sliced at 400 μm thick. Millicell-CM 6-well cell culture inserts (Millipore, 0.4 μm) were prehydrated by pipetting 750 μL culture media under each well and placing in a 35°C, 5% CO2 incubator for at least 30 min. Culture media: 100 mL MEM-HEPES, 50 mL HBSS, 50 mL HI horse serum, 1 mL 100x Pen/Strep (all Gibco), 1.3 g (6.5 mg/mL) glucose, and 2 mL 200 μM (2 mM) Glutamax, sterile filtered. […] Protein was quantitated for each sample using Coomassie Plus reagent (Thermo). […]
Tissue was harvested and lysates analyzed for APPΔC31 by ELISA. Lysates were protein normalized and expressed as a % of control.

[6] = system: APPΔC31 production in CHO-7W cells; assay: Statin induction of APPΔC31, ELISA; type: cell-based, Chinese hamster; details: 24 h, statins at 1, 5 and 10 μM
Description: An HRP-conjugated secondary antibody is then added and a colorimetric signal generated by enzymatic conversion of the tetramethylbenzidine (TMB) substrate. Protein levels were first determined using a colorimetric coomassie assay (Coomassie Plus, Thermo).
APPΔC31 was determined in cell lysates by ELISA.

in vitro = details: Chinese hamster

Row | SMILES | % Min (APPΔC31 dose-response) ([1]; AlphaLISA dose-response (Figure 5C), cerivastatin-stimulated) [%] | IC50 ([1]; Cricetulus griseus, (A) AlphaLISA, cerivastatin-induced, read-out: IC50 (A), APPΔC31 inhibition) [nM] | APPΔC31 Inh. (mean %) [2] [%] | effect on CS-induced APPΔC31 by immunoblot (in words) [3] | effect on sAPPα (in words) (sAPPα in CHO-7W cultures) | effect on total protein concentration with cerivastatin (in words) (CHO-7W cells) | KIAM (IAM capacity factor) ([4]; IAM.PC.DD2 column, water/methanol gradient) | KIAM/MW^4 x 10^10 ([4]; IAM.PC.DD2 column, correlation of Yoon et al. (2006)) | BBB Penetration Prediction ([4]; from KIAM/MW^4 x 10^10, cut-off 0.85) | inhibition at 30 µM [5] [%] | induction of APPΔC31 (in words) [6] | viability at 24 h, 10 µM (in vitro) [%]
1 | O=C(CCCN1CCC2(CC1)C(=O)N(Cc1cccc(F)c1)CN2c1ccccc1)c1ccc(F)cc1 [3′Fluorobenzylspiperone maleate, 3′-fluorobenzylspiperone maleate] | 25 | 2200 | 78 | decreased | increased sAPPα | increased total protein concentration | 3.2 | 0.50 | low (If KIAM/MW^4x10^10 < 0.85 the BBB penetration is predicted to be low) | ~82 | – | –
2 | COCc1c(C(C)C)nc(C(C)C)c(/C=C/[C@@H](O)C[C@@H](O)CC(=O)O)c1-c1ccc(F)cc1 [Cerivastatin] | – | – | – | – | – | – | – | – | – | – | most effective; also recorded: did so at 1, 5, and 10 μM | 15
